For the test, the target named is human PDE10A (Homo sapiens (Human), UniProt Q9Y233). The experiment in a line: human PDE10A full length assay ([3H]-cGMP SPA). The class given is biochemical. The note with it: human PDE10A full length enzyme, 50 nM cGMP + 50 nM [3H]-cGMP, 20 minutes at room temperature; read-out: PDE10A inhibition IC50. On the procedure: The human PDE10A full length assay was performed in 96-well micro titer plates. The reaction mixture of 50 μl contained 20 mM HEPES pH=7.5/10 mM MgCl2/0.05 mg/ml BSA (Sigma cat. #A-7906), 50 nM cGMP (Sigma, cat. #G6129) and 50 nM [3H]-cGMP (GE Healthcare, cat. #TRK392 S.A. 13.2 Ci/mmol), 3.75 ng/well PDE10A enzyme (Enzo Life Science, Lausen, Switzerland cat #SE-534) with or without a specific test compound. A range of concentrations of the potential inhibitor was used to generate data for calculating the concentration of inhibitor resulting in 50% of the effect (e.g. IC50, the concentration of the competitor inhibiting PDE10A activity by 50%). Non-specific activity was tested without the enzyme. The reaction was initiated by the addition of the substrate solution (cGMP and [3H]-cGMP) and allowed to progress for 20 minutes at room temperature. The reaction was terminated by adding 25 μl of YSi-SPA scintillation beads (GE Healthcare, cat. #RPNQ0150) in 18 mM zinc sulphate solution (stop reagent). After 1 h under shaking, the plate was centrifuged one minute at 170 g to allow beads to settle. Afterwards, radioactive counts were measured on a Perkin Elmer TopCount Scintillation plate reader.
Sequence of human PDE10A (Q9Y233 other isoform, or with tags, fused parts or gaps): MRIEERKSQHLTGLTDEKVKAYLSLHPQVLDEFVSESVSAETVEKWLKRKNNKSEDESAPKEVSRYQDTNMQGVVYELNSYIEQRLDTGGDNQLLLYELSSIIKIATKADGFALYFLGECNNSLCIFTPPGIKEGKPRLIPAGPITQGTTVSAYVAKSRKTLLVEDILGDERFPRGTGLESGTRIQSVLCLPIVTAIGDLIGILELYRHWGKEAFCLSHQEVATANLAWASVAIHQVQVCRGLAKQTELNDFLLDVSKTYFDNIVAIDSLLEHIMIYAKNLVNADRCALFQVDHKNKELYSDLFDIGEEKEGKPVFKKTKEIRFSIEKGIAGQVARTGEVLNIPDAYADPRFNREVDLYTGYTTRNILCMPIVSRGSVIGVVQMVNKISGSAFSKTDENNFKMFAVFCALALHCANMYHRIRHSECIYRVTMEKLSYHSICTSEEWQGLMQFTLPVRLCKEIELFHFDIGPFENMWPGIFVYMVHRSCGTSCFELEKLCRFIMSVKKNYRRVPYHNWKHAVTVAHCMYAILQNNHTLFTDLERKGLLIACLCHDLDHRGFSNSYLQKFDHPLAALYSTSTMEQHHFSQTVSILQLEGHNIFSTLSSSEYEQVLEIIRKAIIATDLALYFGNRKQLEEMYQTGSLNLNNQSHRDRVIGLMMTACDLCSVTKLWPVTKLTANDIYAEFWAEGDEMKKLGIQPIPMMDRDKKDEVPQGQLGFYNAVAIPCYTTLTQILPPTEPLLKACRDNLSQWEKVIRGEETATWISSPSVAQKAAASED

For orientation: IC50 means the concentration that gives 50% inhibition. `Cc1cn2nc(C)c(C)c2nc1CCc1nc(N2CCCC2)nn1C` [Example 61, 2,3,6-Trimethyl-5-(2-(1-methyl-3-(pyrrolidin-1-yl)-1H-1,2,4-triazol-5-yl)ethyl)pyrazolo[1,5-a]pyrimidine]: the IC50 stood at 76 nM.
Take `Cc1c(C(F)(F)F)nc2c(OCC(F)(F)F)cc(C#Cc3nc(N4CCCC4)nn3C)nn12` [Example 62, 3-Methyl-6-((1-methyl-3-(pyrrolidin-1-yl)-1H-1,2,4-triazol-5-yl)ethynyl)-8-(2,2,2-trifluoroethoxy)-2-(trifluoromethyl)imidazo[1,2-b]pyridazine]: the IC50 is 3 nM.
Then `Cc1c(C(F)(F)F)nc2c(OCC(F)(F)F)cc(CCc3nc(N4CCCC4)nn3C)nn12` [Example 63, 3-Methyl-6-(2-(1-methyl-3-(pyrrolidin-1-yl)-1H-1,2,4-triazol-5-yl)ethyl)-8-(2,2,2-trifluoroethoxy)-2-(trifluoromethyl)imidazo[1,2-b]pyridazine], with 9.4 nM.
Then `Cc1c(Cl)nc2ccc(CCc3nc(N4CCCC4)nn3C)nn12` [Example 64, 2-Chloro-3-methyl-6-(2-(1-methyl-3-(pyrrolidin-1-yl)-1H-1,2,4-triazol-5-yl)ethyl)imidazo[1,2-b]pyridazine], with 5.5 nM; and `Cc1nc2ccc(C#Cc3nc(N4CCCC4)nn3C)nn2c1Cl` [Example 65, 3-Chloro-2-methyl-6-((1-methyl-3-(pyrrolidin-1-yl)-1H-1,2,4-triazol-5-yl)ethynyl)imidazo[1,2-b]pyridazine], with 2.5 nM.
In the case of `Cc1nc2ccc(CCc3nc(N4CCCC4)nn3C)nn2c1Cl` [Example 66, 3-Chloro-2-methyl-6-(2-(1-methyl-3-(pyrrolidin-1-yl)-1H-1,2,4-triazol-5-yl)ethyl)imidazo[1,2-b]pyridazine], the IC50 amounted to 14.5 nM.
Turning to `Cc1cn2nc(C#Cc3nc(N4CCCC4)nn3C)ccc2n1` [Example 67, 2-Methyl-6-((1-methyl-3-(pyrrolidin-1-yl)-1H-1,2,4-triazol-5-yl)ethynyl)imidazo[1,2-b]pyridazine], the IC50 turned out to be 10.2 nM.
Then `Cc1cn2nc(CCc3nc(N4CCCC4)nn3C)ccc2n1` [Example 68, 2-Methyl-6-(2-(1-methyl-3-(pyrrolidin-1-yl)-1H-1,2,4-triazol-5-yl)ethyl)imidazo[1,2-b]pyridazine], with 146 nM; and `CNC(=O)c1cc(C#Cc2nc(N3CCCC3)nn2C)nn2c(C)c(C(F)(F)F)nc12` [Example 69, N,3-Dimethyl-6-((1-methyl-3-(pyrrolidin-1-yl)-1H-1,2,4-triazol-5-yl)ethynyl)-2-(trifluoromethyl)imidazo[1,2-b]pyridazine-8-carboxamide], with 2.1 nM.
With `CNC(=O)c1cc(CCc2nc(N3CCCC3)nn2C)nn2c(C)c(C(F)(F)F)nc12` [Example 70, N,3-dimethyl-6-(2-(1-methyl-3-(pyrrolidin-1-yl)-1H-1,2,4-triazol-5-yl)ethyl)-2-(trifluoromethyl)imidazo[1,2-b]pyridazine-8-carboxamide], the IC50 turned out to be 13.7 nM.
Then `Cc1c(C(F)(F)F)nn2ccc(C#Cc3nc(N4CCCC4)nn3C)nc12` [Example 71, 3-Methyl-5-[2-(2-methyl-5-pyrrolidin-1-yl-1,2,4-triazol-3-yl)ethynyl]-2-(trifluoromethyl)pyrazolo[1,5-a]pyrimidine], with 8.7 nM.
Turning to `Cc1c(C(F)(F)F)nn2ccc(CCc3nc(N4CCCC4)nn3C)nc12` [Example 72, 3-methyl-5-(2-(1-methyl-3-(pyrrolidin-1-yl)-1H-1,2,4-triazol-5-yl)ethyl)-2-(trifluoromethyl)pyrazolo[1,5-a]pyrimidine], the IC50 amounted to 32.9 nM.
For “N-Ethyl-6,7-dimethyl-2-(2-(1-methyl-3-(pyrrolidin-1-yl)-1H-1,2,4-triazol-5-yl)ethyl)-imidazo[1,2-f][1,2,4]triazin-4-amine [Example 32]” the value was 6 nM; for “N-Ethyl-N,6,7-trimethyl-2-(2-(1-methyl-3-(pyrrolidin-1-yl)-1H-1,2,4-triazol-5-yl)ethyl)imidazo[1,2-f][1,2,4]triazin-4-amine [Example 34]”, 5 nM.

The values above are taken from patent US9617271B2, “Triazolo compounds” (Hoffmann-La Roche Inc., priority 2012, dated 2017).
